Results from ChEMBL document CHEMBL1158654, “Cytotoxic principles from the sap of Kalmia latifolia” (J Nat Prod, 1979).
In brackets after ≈: the same amount, converted by molar mass.

Key:
[1] = Cytotoxicity against human 9KB cells assessed as cell survival at 100 ug/ml relative to control; type: functional; conditions: read-out: Activity
[2] = Cytotoxicity against human 9KB cells assessed as cell survival at 10 ug/ml relative to control; type: functional; conditions: read-out: Activity
[3] = Cytotoxicity against human 9KB cells relative to control; type: functional; conditions: read-out: ED50 (the source's name)
P388 = test: Cytotoxicity against mouse P388 cells relative to control; type: functional
[4] = Cytotoxicity against human 9KB cells in in-vivo based assay at 65 mg/kg relative to control; type: functional
[5] = Toxicity in ip dosed mouse; type: organism-based; conditions: in vivo

In the case of `COc1cc(O)c(C(C)=O)c(O)c1`, the viability at 100 µg/mL [1] is reported as 0%, the viability at 10 µg/mL [2] is reported as 0% and the EC50 [3] is reported as 4.7 µg/mL (≈ 25.8 µM).

In the case of `COc1ccc(CCC(=O)c2c(O)cc(O)cc2O)cc1O`, the viability at 100 µg/mL [1] is reported as 46% and the viability at 10 µg/mL [2] is reported as 100%.

With `COc1cc(O)c(Cc2ccccc2O)c(O)c1C(=O)CCc1ccccc1` [UVARETIN] the T/C (P388) was 132%.

For `O=C(CCc1ccc(O)cc1)c1c(O)cccc1O`, the viability at 100 µg/mL [1] was 20% and the viability at 10 µg/mL [2] was 100%.

With `O=C(CCc1ccc(O)cc1)c1cccc(O)c1` the viability at 100 µg/mL [1] was 0% and the viability at 10 µg/mL [2] was 71%.

`COc1cc(O)c(C(C)=O)c(O[C@@H]2O[C@H](CO)[C@@H](O)[C@H](O)[C@H]2O)c1` [PLEOSIDE] showed a viability at 100 µg/mL [1] of 39% and a viability at 10 µg/mL [2] of 100%.

Work on `COc1cc(O)c(C(C)=O)c(OC)c1` [XANTHOXYLIN] yielded a viability at 100 µg/mL [1] of 0% and a viability at 10 µg/mL [2] of 100%.

`O=C(CCc1ccc(O)cc1)c1ccccc1O` showed a viability at 100 µg/mL [1] of 0% and a viability at 10 µg/mL [2] of 100%.

In the case of `O=C(CCc1ccc(O)c(O)c1)c1ccc(O)c(O)c1O`, the T/C [4] is reported as 126%, the viability at 100 µg/mL [1] is reported as 0% and the viability at 10 µg/mL [2] is reported as 0%. It also gave an EC50 [3] of 2.5 µg/mL (≈ 8.61 µM).

Work on `COc1cc(O)c(C(=O)CCc2ccc(O)cc2)c(O[C@@H]2O[C@H](CO)[C@@H](O)[C@H](O)[C@H]2O)c1` [ASEBOTIN] yielded a viability at 100 µg/mL [1] of 100% and a viability at 10 µg/mL [2] of 100%.

Work on `O=C(CCc1ccc(O)c(O)c1)c1ccccc1O` yielded a viability at 100 µg/mL [1] of 0% and a viability at 10 µg/mL [2] of 100%.

In the case of `COc1cc(CCC(=O)c2ccccc2O)ccc1O`, the viability at 100 µg/mL [1] is reported as 0% and the viability at 10 µg/mL [2] is reported as 76%.

`COc1cc(O)c(C(=O)CCc2ccccc2)c(OC)c1` gave a viability at 100 µg/mL [1] of 0% and a viability at 10 µg/mL [2] of 59%.

`O=C(CCc1ccc(O)cc1)c1ccc(O)cc1` showed a viability at 100 µg/mL [1] of 0% and a viability at 10 µg/mL [2] of 90%.

In the case of `O=C(CCc1ccc(O)cc1)c1c(O)cc(O)cc1O` [PHLORETIN], the viability at 100 µg/mL [1] is reported as 0%, the viability at 10 µg/mL [2] is reported as 76% and the EC50 [3] is reported as 28 µg/mL (≈ 102 µM).

In the case of `O=C(CCc1ccc(O)cc1)c1ccc(O)c(O)c1O`, the viability at 100 µg/mL [1] is reported as 0% and the viability at 10 µg/mL [2] is reported as 100%.

For `COc1cc(O)c(C(=O)CCc2ccc(O)cc2)c(O)c1` [ASEBOGENIN], the viability at 100 µg/mL [1] was 0% and the viability at 10 µg/mL [2] was 100%.

`O=C(CCc1ccc(O)cc1)c1ccccc1` gave a viability at 100 µg/mL [1] of 0% and a viability at 10 µg/mL [2] of 89%.

`CC(=O)c1ccc(O)c(O)c1O` [GALLACETOPHENONE] showed a viability at 100 µg/mL [1] of 0% and a viability at 10 µg/mL [2] of 81%.

Work on `O=C(CCc1ccc(O)cc1)c1ccc(O)cc1O` [DAVIDIGENIN] yielded a viability at 100 µg/mL [1] of 0% and a viability at 10 µg/mL [2] of 50%.

`COc1cc(C(=O)CCc2ccc(O)cc2)ccc1O` showed a viability at 100 µg/mL [1] of 0% and a viability at 10 µg/mL [2] of 57%.

`O=C(CCc1ccc(O)c(O)c1)c1c(O)cc(O)cc1O` gave a viability at 100 µg/mL [1] of 0% and a viability at 10 µg/mL [2] of 95%.

Molecule `COc1cc(CCC(=O)c2ccccc2)ccc1O` has a viability at 100 µg/mL [1] of 0% and a viability at 10 µg/mL [2] of 82%.

For `CC(=O)O[C@@H]1[C@H]2CC[C@H]3[C@@](C)(O)[C@@H]4C[C@H](O)C(C)(C)[C@@]4(O)[C@H](O)C[C@@]13C[C@@]2(C)O` [GRAYANOTOXIN I], the LD50 [5] was 1.3 mg/kg and the EC50 [3] was 60 µg/mL (≈ 145 µM).

Work on `COc1ccc(C(=O)CCc2ccc(O)cc2)c(O)c1` yielded a viability at 100 µg/mL [1] of 0% and a viability at 10 µg/mL [2] of 100%.

With `CC(=O)c1c(O)cc(O)cc1O` [2,4,6-TRIHYDROXYACETOPHENONE] the viability at 100 µg/mL [1] was 29% and the viability at 10 µg/mL [2] was 100%.

Molecule `O=C(CCc1ccccc1)c1c(O)cc(O)cc1O` has a viability at 100 µg/mL [1] of 0% and a viability at 10 µg/mL [2] of 100%.

With `O=C(CCc1ccc(O)cc1)c1c(O)cc(O)cc1O[C@@H]1O[C@H](CO)[C@@H](O)[C@H](O)[C@H]1O` [PHLORIZIN] the viability at 100 µg/mL [1] was 47%, the viability at 10 µg/mL [2] was 100% and the EC50 [3] was 100 µg/mL (≈ 229 µM).
